According to US20100074920A1 (priority 2006, published 2010):
Where two headings read alike, the source gives them in different places.

Assays:
[1] = system: serum antibodies of test subjects Serum 1B-8B; conditions: sera S1B-S8B; streptavidin immobilized peptide
[2] = system: commercial polyclonal antibody from rabbit; experiment: ELISA control, peptide coated on maleimide plate; conditions: peptide coated on a maleimide plate; negligible binding without the peptide
From the text: A commercial peptide […] (HM11-peptide), which has been used as a recognition tag on recombinant proteins was used as a control and for testing of analysis of binding between a free core peptide and human antibodies. Due to restricted availability of at least N-terminal sequence the peptide would not be very effective in immunization against the viral as therapy. This peptide is known to be antigenic in animals under immunization conditions and antibodies including polyclonals from rabbit, mice etc.

[3] = system: serum antibodies of test subjects 1-6; experiment: ELISA on maleimide-activated plates (Cys-immobilized peptides); format: binding, human; conditions: Cys-conjugate on maleimide plate; sera 1-6
Experimental: Peptides containing cysteine were bound through the cysteine sulfhydryl group to maleimide activated plates (Reacti-Bind™ Maleimide activated plates, Pierce). The peptides sequences were as follows:
One hundred microliters of the peptide solution (0.5 nmol of peptide) was added to each well and allowed to react overnight at +4° C.
The unreacted maleimide groups were blocked with 2-mercaptoethanol: 150 μl of 1 mM 2-mercaptoethanol in 10 mM sodium phosphate/0.15 M NaCl/2 mM EDTA, pH 7.2 was added to each well and allowed to react for 1 hour at RT.
The serum obtained from person nr. […] Control wells contained no peptide but both 2-mercaptoethanol and BSA blockings were employed. All incubations were performed in duplicates.

[4] = system: serum antibodies of test subjects 1-6; conditions: N-terminal conjugate on a streptavidin plate; sera 1-6

Biotin-aminocaproyl-CRPWVRGVC [Peptide 4B]
binding of serum antibodies (immune response), absorbance at 450 nm [1]: bind generally more strongly antibodies than the corresponding linear peptide 3

CYPYDVPDYA [HA11, commercial peptide used as a recognition tag on recombinant proteins; control and core peptide]
binding of commercial polyclonal antibody from rabbit to the peptide [2]: effective binding

Biotin-aminohexanoyl-SYACKR [Peptide 2]
immune response of the 6 sera, order of reactivity [3]: reacted with sera similarly but reactions with serum 5 was weaker and the serum 6 showed the strongest response | immune response of the 6 sera, order of reactivity [4]: sera 2 and 5 showed strongest immune response before sera 3,4 and 6, while serum 1 showed weakest reaction

Biotin-aminocaproyl-CRPKVRDQC [Peptide 3B]
binding of serum antibodies (immune response), absorbance at 450 nm [1]: unusually high response, especially with a person S5B

Biotin-aminohexanoyl-PWVRGV [Peptide 3]
immune response of the 6 sera, order of reactivity [4]: distinct pattern of immune recognition
